Molecular target: T1, Androgen Receptor (AR) protein (Homo sapiens, UniProt P10275, T878A)
T1 construct: endogenous in cells; host or cells: LNCaP
Experiment: Androgen Receptor (AR) protein degradation assay in LNCaP cells, western blotting
Assay type: cell-based
Conditions: 20 h; for inhibition at 0.01 µM: 0.01 μM compound; for inhibition at 0.1 µM: 0.1 μM compound; for inhibition at 1 µM: 1 μM compound
Method in brief: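 AR protein level was detected by western blot (ECL) against GAPDH or β-actin controls, with 8 μg lysate protein loaded per lane after BCA quantification. Lysates came from LNCaP cells exposed to test compound for 20 h, following 3 days of growth in RPMI/10% FBS.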

T1 sequence (P10275 whole entry T878A): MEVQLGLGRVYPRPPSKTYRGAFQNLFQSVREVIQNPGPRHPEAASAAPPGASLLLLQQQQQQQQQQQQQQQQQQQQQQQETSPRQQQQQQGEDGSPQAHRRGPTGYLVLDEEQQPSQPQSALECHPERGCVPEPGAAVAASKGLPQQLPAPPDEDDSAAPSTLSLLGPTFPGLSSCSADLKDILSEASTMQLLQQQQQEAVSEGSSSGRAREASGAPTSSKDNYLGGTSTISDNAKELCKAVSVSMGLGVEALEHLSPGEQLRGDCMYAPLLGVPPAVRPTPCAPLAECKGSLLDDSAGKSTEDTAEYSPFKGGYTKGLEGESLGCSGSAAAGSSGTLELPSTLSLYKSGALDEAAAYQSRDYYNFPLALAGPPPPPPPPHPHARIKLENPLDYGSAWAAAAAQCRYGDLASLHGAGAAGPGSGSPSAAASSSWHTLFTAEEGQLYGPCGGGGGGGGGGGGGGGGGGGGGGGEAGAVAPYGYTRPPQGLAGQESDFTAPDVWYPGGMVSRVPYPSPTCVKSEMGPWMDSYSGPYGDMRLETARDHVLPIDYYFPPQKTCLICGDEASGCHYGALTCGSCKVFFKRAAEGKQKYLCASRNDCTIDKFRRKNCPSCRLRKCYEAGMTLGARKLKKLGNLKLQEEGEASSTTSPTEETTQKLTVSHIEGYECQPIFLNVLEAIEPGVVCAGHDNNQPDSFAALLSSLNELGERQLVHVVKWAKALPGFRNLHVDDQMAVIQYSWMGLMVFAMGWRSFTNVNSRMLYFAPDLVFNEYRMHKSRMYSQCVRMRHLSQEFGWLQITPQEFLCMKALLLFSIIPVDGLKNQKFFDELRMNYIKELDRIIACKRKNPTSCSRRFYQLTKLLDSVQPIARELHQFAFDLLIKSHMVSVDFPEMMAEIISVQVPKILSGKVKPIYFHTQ
T1 sequence (Q96SW2 whole entry partner): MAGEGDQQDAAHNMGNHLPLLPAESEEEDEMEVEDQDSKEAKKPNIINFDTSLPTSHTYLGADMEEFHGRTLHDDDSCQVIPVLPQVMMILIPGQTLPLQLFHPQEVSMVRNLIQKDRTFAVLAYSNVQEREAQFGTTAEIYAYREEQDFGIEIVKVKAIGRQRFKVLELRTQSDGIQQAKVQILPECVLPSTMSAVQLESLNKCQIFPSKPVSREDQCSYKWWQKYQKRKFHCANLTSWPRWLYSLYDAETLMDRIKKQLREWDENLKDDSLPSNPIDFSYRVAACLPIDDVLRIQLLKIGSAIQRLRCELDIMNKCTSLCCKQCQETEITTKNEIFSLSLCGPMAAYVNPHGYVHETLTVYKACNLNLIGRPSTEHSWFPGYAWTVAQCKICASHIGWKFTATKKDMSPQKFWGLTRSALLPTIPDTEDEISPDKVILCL

Structure (SMILES)	inhibition at 0.01 µM	inhibition at 0.1 µM	inhibition at 1 µM
N#Cc1ccc(N2CCC(C(=O)Nc3ccc(N4CCC(CN5CC6CN(c7ccc8c(c7)C(=O)N(C7CCC(=O)NC7=O)C8=O)CC6C5)CC4)cn3)CC2)cc1C(F)(F)F (stereo not drawn) [Example 85, 1-(4-cyano-3-(trifluoromethyl)phenyl)-N-(5-(4-((5-(2-(2,6-dioxopiperidin-3-yl)-1,3-dioxoisoindolin-5-yl)hexahydropyrrolo[3,4-c]pyrrol-2(1H)-yl)methyl)piperidin-1-yl)pyridin-2-yl)piperidine-4-carboxamide]	24%	89%	92%
N#Cc1ccc(N2CCC(C(=O)Nc3ccc(N4CCC(CCN5CCN(c6ccc7c(c6)C(=O)N(C6CCC(=O)NC6=O)C7=O)CC5)CC4)cn3)CC2)cc1C(F)(F)F (stereo not drawn) [Example 86, 1-(4-cyano-3-(trifluoromethyl)phenyl)-N-(5-(4-(2-(4-(2-(2,6-dioxopiperidin-3-yl)-1,3-dioxoisoindolin-5-yl)piperazin-1-yl)ethyl)piperidin-1-yl)pyridin-2-yl)piperidine-4-carboxamide]	65%	94%	96%
N#Cc1ccc(N2CCC(C(=O)Nc3ccc(N4CCC(CCN5CCN(c6ccc7c(c6)C(=O)N(C6CCC(=O)NC6=O)C7=O)CC5)CC4)cn3)CC2)cc1Cl (stereo not drawn) [Example 87, 1-(3-chloro-4-cyanophenyl)-N-(5-(4-(2-(4-(2-(2,6-dioxopiperidin-3-yl)-1,3-dioxoisoindolin-5-yl)piperazin-1-yl)ethyl)piperidin-1-yl)pyridin-2-yl)piperidine-4-carboxamide]	30%	88%	90%
N#Cc1ccc(N2CCC(F)(C(=O)Nc3ccc(N4CCC(CCN5CCN(c6ccc7c(c6)C(=O)N(C6CCC(=O)NC6=O)C7=O)CC5)CC4)cn3)CC2)cc1C(F)(F)F (stereo not drawn) [Example 88, 1-(4-cyano-3-(trifluoromethyl)phenyl)-N-(5-(4-(2-(4-(2-(2,6-dioxopiperidin-3-yl)-1,3-dioxoisoindolin-5-yl)piperazin-1-yl)ethyl)piperidin-1-yl)pyridin-2-yl)-4-fluoropiperidine-4-carboxamide]	35%	87%	96%
N#Cc1ncc(N2CCC(C(=O)Nc3ccc(N4CCC(CCN5CCN(c6ccc7c(c6)C(=O)N(C6CCC(=O)NC6=O)C7=O)CC5)CC4)cn3)CC2)cc1C(F)(F)F (stereo not drawn) [Example 89, 1-(6-cyano-5-(trifluoromethyl)pyridin-3-yl)-N-(5-(4-(2-(4-(2-(2,6-dioxopiperidin-3-yl)-1,3-dioxoisoindolin-5-yl)piperazin-1-yl)ethyl)piperidin-1-yl)pyridin-2-yl)piperidine-4-carboxamide]	35%	73%	91%
N#Cc1ncc(N2CCC(F)(C(=O)Nc3ccc(N4CCC(CCN5CCN(c6ccc7c(c6)C(=O)N(C6CCC(=O)NC6=O)C7=O)CC5)CC4)cn3)CC2)cc1C(F)(F)F (stereo not drawn) [Example 90, 1-(6-cyano-5-(trifluoromethyl)pyridin-3-yl)-N-(5-(4-(2-(4-(2-(2,6-dioxopiperidin-3-yl)-1,3-dioxoisoindolin-5-yl)piperazin-1-yl)ethyl)piperidin-1-yl)pyridin-2-yl)-4-fluoropiperidine-4-carboxamide]	23%	57%	82%
N#Cc1ccc(N2CCC(C(=O)Nc3ccc(N4CCC(CCN5CCN(C6CCN(c7ccc8c(c7)C(=O)N(C7CCC(=O)NC7=O)C8=O)CC6)CC5)CC4)cn3)CC2)cc1C(F)(F)F (stereo not drawn) [Example 91, 1-(4-cyano-3-(trifluoromethyl)phenyl)-N-(5-(4-(2-(4-(1-(2-(2,6-dioxopiperidin-3-yl)-1,3-dioxoisoindolin-5-yl)piperidin-4-yl)piperazin-1-yl)ethyl)piperidin-1-yl)pyridin-2-yl)piperidine-4-carboxamide]	48%	96%	98%
N#Cc1ccc(N2CCC(C(=O)Nc3ccc(N4CCC(CCN5CCN(c6ccc7c(n6)CN(C6CCC(=O)NC6=O)C7=O)CC5)CC4)cn3)CC2)cc1C(F)(F)F (stereo not drawn) [Example 92, 1-(4-cyano-3-(trifluoromethyl)phenyl)-N-(5-(4-(2-(4-(6-(2,6-dioxopiperidin-3-yl)-5-oxo-6,7-dihydro-5H-pyrrolo[3,4-b]pyridin-2-yl)piperazin-1-yl)ethyl)piperidin-1-yl)pyridin-2-yl)piperidine-4-carboxamide]	53%	67%	96%
N#Cc1ccc(N2CCC(C(=O)Nc3ccc(N4CCC(CCN5CCN(c6cccc7c6C(=O)N(C6CCC(=O)NC6=O)C7=O)CC5)CC4)cn3)CC2)cc1C(F)(F)F (stereo not drawn) [Example 93, 1-(4-cyano-3-(trifluoromethyl)phenyl)-N-(5-(4-(2-(4-(2-(2,6-dioxopiperidin-3-yl)-1,3-dioxoisoindolin-4-yl)piperazin-1-yl)ethyl)piperidin-1-yl)pyridin-2-yl)piperidine-4-carboxamide]	-11%	55%	68%
N#Cc1ccc(N2CCC(C(=O)Nc3ccc(N4CCC(CCN5CC6(CCN(c7ccc8c(c7)C(=O)N(C7CCC(=O)NC7=O)C8=O)CC6)C5)CC4)cn3)CC2)cc1C(F)(F)F (stereo not drawn) [Example 94, 1-(4-cyano-3-(trifluoromethyl)phenyl)-N-(5-(4-(2-(7-(2-(2,6-dioxopiperidin-3-yl)-1,3-dioxoisoindolin-5-yl)-2,7-diazaspiro[3.5]nonan-2-yl)ethyl)piperidin-1-yl)pyridin-2-yl)piperidine-4-carboxamide]	75%	98%	98%
N#Cc1ccc(N2CCC(C(=O)Nc3ccc(N4CCC(CCN5CCC6(CC5)CN(c5ccc7c(c5)C(=O)N(C5CCC(=O)NC5=O)C7=O)C6)CC4)cn3)CC2)cc1C(F)(F)F (stereo not drawn) [Example 95, 1-(4-cyano-3-(trifluoromethyl)phenyl)-N-(5-(4-(2-(2-(2-(2,6-dioxopiperidin-3-yl)-1,3-dioxoisoindolin-5-yl)-2,7-diazaspiro[3.5]nonan-7-yl)ethyl)piperidin-1-yl)pyridin-2-yl)piperidine-4-carboxamide]	62%	96%	97%
N#Cc1ccc(N2CCC(C(=O)Nc3ccc(N4CCC(CCN5CCC6(CC5)CN(c5ccc7c(n5)CN(C5CCC(=O)NC5=O)C7=O)C6)CC4)cn3)CC2)cc1C(F)(F)F (stereo not drawn) [Example 96, 1-(4-cyano-3-(trifluoromethyl)phenyl)-N-(5-(4-(2-(2-(6-(2,6-dioxopiperidin-3-yl)-5-oxo-6,7-dihydro-5H-pyrrolo[3,4-b]pyridin-2-yl)-2,7-diazaspiro[3.5]nonan-7-yl)ethyl)piperidin-1-yl)pyridin-2-yl)piperidine-4-carboxamide]	71%	93%	91%
N#Cc1ccc(N2CCC(C(=O)Nc3ccc(N4CCC(CCN5CC(N6CCN(c7ccc8c(c7)C(=O)N(C7CCC(=O)NC7=O)C8=O)CC6)C5)CC4)cn3)CC2)cc1C(F)(F)F (stereo not drawn) [Example 97, 1-(4-cyano-3-(trifluoromethyl)phenyl)-N-(5-(4-(2-(3-(4-(2-(2,6-dioxopiperidin-3-yl)-1,3-dioxoisoindolin-5-yl)piperazin-1-yl)azetidin-1-yl)ethyl)piperidin-1-yl)pyridin-2-yl)piperidine-4-carboxamide]	39%	93%	96%
N#Cc1ccc(N2CCC(C(=O)Nc3ccc(N4CCC(CCN5CC(N6CCN(c7ccc8c(n7)CN(C7CCC(=O)NC7=O)C8=O)CC6)C5)CC4)cn3)CC2)cc1C(F)(F)F (stereo not drawn) [Example 98, 1-(4-cyano-3-(trifluoromethyl)phenyl)-N-(5-(4-(2-(3-(4-(6-(2,6-dioxopiperidin-3-yl)-5-oxo-6,7-dihydro-5H-pyrrolo[3,4-b]pyridin-2-yl)piperazin-1-yl)azetidin-1-yl)ethyl)piperidin-1-yl)pyridin-2-yl)piperidine-4-carboxamide]	48%	89%	76%
N#Cc1ccc(N2CCC(C(=O)Nc3ccc(N4CCC(CCN5CCN(C6CN(c7ccc8c(c7)C(=O)N(C7CCC(=O)NC7=O)C8=O)C6)CC5)CC4)cn3)CC2)cc1C(F)(F)F (stereo not drawn) [Example 99, 1-(4-cyano-3-(trifluoromethyl)phenyl)-N-(5-(4-(2-(4-(1-(2-(2,6-dioxopiperidin-3-yl)-1,3-dioxoisoindolin-5-yl)azetidin-3-yl)piperazin-1-yl)ethyl)piperidin-1-yl)pyridin-2-yl)piperidine-4-carboxamide]	70%	98%	96%
N#Cc1ccc(N2CCC(C(=O)Nc3ccc(N4CCC(CCN5CCN(C6CN(c7ccc8c(n7)CN(C7CCC(=O)NC7=O)C8=O)C6)CC5)CC4)cn3)CC2)cc1C(F)(F)F (stereo not drawn) [Example 100, 1-(4-cyano-3-(trifluoromethyl)phenyl)-N-(5-(4-(2-(4-(1-(6-(2,6-dioxopiperidin-3-yl)-5-oxo-6,7-dihydro-5H-pyrrolo[3,4-b]pyridin-2-yl)azetidin-3-yl)piperazin-1-yl)ethyl)piperidin-1-yl)pyridin-2-yl)piperidine-4-carboxamide]	31%	84%	89%
N#Cc1ccc(N2CCC(C(=O)Nc3ccc(N4CCC(CCN5CC6CN(c7ccc8c(c7)C(=O)N(C7CCC(=O)NC7=O)C8=O)CC6C5)CC4)cn3)CC2)cc1C(F)(F)F (stereo not drawn) [Example 101, 1-(4-cyano-3-(trifluoromethyl)phenyl)-N-(5-(4-(2-(5-(2-(2,6-dioxopiperidin-3-yl)-1,3-dioxoisoindolin-5-yl)hexahydropyrrolo[3,4-c]pyrrol-2(1H)-yl)ethyl)piperidin-1-yl)pyridin-2-yl)piperidine-4-carboxamide]	63%	95%	95%

— patent US12122763B2, “Substituted piperidines for androgen receptor degradation” (UBIX THERAPEUTICS, INC., priority 2020, dated 2024)
